According to publication PMC4008422, “Cytotoxicity and activation of the Wnt/beta-catenin pathway in mouse embryonic stem cells treated with four GSK3 inhibitors” (BMC Research Notes, 2014):
Where two headings read alike, the source gives them in different places.

Legend:
ES-D3 cells = experiment: Cell viability assay (MTT), ES-D3; type: cell-based, mouse; details: for viability reduced by: three days; for IC50: ES-D3 cells, three day treatment, medium devoid of LIF, reduced serum, read-out: IC50 (half maximal inhibitory concentration, cell viability)
Description: (§1) The medium was changed daily and the cells were passaged 2–3 times per week. […] A randomized control was performed with basal medium without growth factors and/or small molecules. Physiological activation of the Wnt/beta-catenin-pathway was tested in medium supplemented with 50 ng/ml Wnt3a.
(§2) The viability of the mouse ES cells was determined after exposure to different concentrations of GSK3 inhibitors for three days using the MTT assay. The decrease of MTT activity is a reliable metabolism-based test for quantifying cell viability; this decrease correlates with the loss of cell viability. 2,000 cells were seeded overnight on gelatine-coated 96-well plates in LIF-containing ES cell medium. […] Basal medium without GSK3 inhibitors or DMSO was used as control. All tested conditions were analyzed in triplicates.

ES-CCE cells = experiment: Cell viability assay (MTT), ES-CCE; type: cell-based, mouse; details: BIO 0.1-1 μM, others 1-10 μM, three days
Description: as §1, §2

Wnt/beta-catenin pathway [1] = experiment: Wnt/beta-catenin TOPFlash dual luciferase reporter assay, ES-D3; type: cell-based, mouse; details: 48 and 72 h, vs control and 50 ng/ml Wnt3a
Description: (§3) The Wnt/beta-catenin reporter assay was performed with the M50 Super 8× TOPFlash and M51 Super 8× FOPFlash vector containing the firefly luciferase gene under the control of TCF/LEF binding sites (M50 Super 8x TOPFlash) or mutated bindings sites (M51 Super 8× FOPFlash). 12,500 cells were seeded overnight on gelatine-coated 96-well plates in LIF-containing ES cell medium. On the next day the cells were transfected using Lipofectamine (Life Technologies) with one of the aforementioned vectors plus pGL4.75 [hRluc/CMV] (Promega) encoding the renilla luciferase reporter gene hRluc as a transfection control. […] The Dual-Luciferase® reporter assay system (Promega) was employed 48 and 72 h after medium change to follow the luminescence reaction using a GloMax®-multi detection system (Promega).
(§4) To assess the activation of the Wnt/beta-catenin signaling pathway by GSK3i, a dual luciferase reporter assay was used (Figure 2A/B). Mouse ES cells were transfected with the M50 TOPflash firefly luciferase vector, comprising seven TCF/LEF binding sites or as a negative control with the M51 FOPflash vector harboring mutated binding sites. To normalize the transfection efficiency, a hRluc/CMV vector with a constitutive expression of the renilla luciferase was used. Mouse ES cells of both lines were incubated with GSK3 inhibitors with concentrations close to the IC50 values calculated for the ES-D3 cell line. Dual luciferase luminescence was measured 48 and 72 h after cultivation with one of the inhibitors.

Wnt/beta-catenin pathway [2] = experiment: Wnt/beta-catenin TOPFlash dual luciferase reporter assay, ES-CCE; type: cell-based, mouse; details: 48 and 72 h, vs random controls and 50 ng/ml Wnt3a
Description: as §3, §4

T gene = experiment: qPCR gene expression of T in ES-D3 cells; type: cell-based, mouse; details: six day treatment, vs undifferentiated or randomly differentiated cells
Description: Total RNA was isolated from the cells using the RNeasy Kit (Qiagen, Hilden, Germany). Briefly, the cells were lysed in Qiazol (Qiagen), the hydrophilic phase was loaded onto RNA spin columns, and RNA was then prepared as instructed. cDNA synthesis was performed with random hexamer primers and 2 μg of the isolated total RNA following the manufacturer’s instructions. 10–20 ng of cDNA was then loaded in each well of a 384-well plate and specific primers were mixed with the GoTaq® PCR master mix according to the manufacturers’ instructions. Primer sequences were (5’-3’): T fw: […], rev: […], Nanog fw: […], rev: […], and Pou5f1 fw: […], rev: […]. Each qPCR amplification was performed in triplicates and the gathered data were normalized with qBasePlus (Biogazelle, Zwijnaarde, Belgium) against the housekeeping genes G6pdx, Tbp, and Tuba1a[10].

Brachyury = experiment: Immunofluorescence staining of Brachyury in ES-D3 cells; type: cell-based, mouse; details: for saturation of the concentration-response curve, Brachyury-positive cells: 0-10 μM CHIR-99021 or 0-2.5 μM CHIR-98014; for EC50: read-out: EC50 (Brachyury-positive cells)
Description: Immunofluorescence was performed according to standard procedures. ES cells were treated on 6-well plates with different GSK3 inhibitors and after 48 h 100,000 cells were re-seeded in each cavity of Matrigel-coated glass slides (Zellkontakt, Nörten-Hardenberg, Germany). After 24 h in medium the cells were fixed in 4% (w/v) paraformaldehyde for 45 min at 4°C. Subsequently, the cells were blocked for 20 min in PBS plus 0.2% Triton X-100, 6% BSA, and 1 mg/ml NaBH4. Primary and secondary antibodies were diluted in PBS with 0.1% Triton X-100 and 0.1% BSA. Primary antibodies were incubated on the slides for 2.5 h at room temperature (RT) or overnight at 4°C. Secondary antibodies were incubated on the slides for 1 h at RT. […] Secondary antibodies were obtained from Dianova (Hamburg, Germany). Finally, the slides were mounted with immunoselect antifading mounting medium containing DAPI (Dianova) to counterstain the nuclei. The stained cells were examined using an Olympus IX81 inverted microscope (Olympus, Hamburg, Germany).

Oct3/4 = experiment: Immunofluorescence staining of Oct3/4 in ES-D3 cells; type: cell-based, mouse; details: three day treatment
Description: Immunofluorescence was performed according to standard procedures. ES cells were treated on 6-well plates with different GSK3 inhibitors and after 48 h 100,000 cells were re-seeded in each cavity of Matrigel-coated glass slides (Zellkontakt, Nörten-Hardenberg, Germany). After 24 h in medium the cells were fixed in 4% (w/v) paraformaldehyde for 45 min at 4°C. Subsequently, the cells were blocked for 20 min in PBS plus 0.2% Triton X-100, 6% BSA, and 1 mg/ml NaBH4. Primary and secondary antibodies were diluted in PBS with 0.1% Triton X-100 and 0.1% BSA. Primary antibodies were incubated on the slides for 2.5 h at room temperature (RT) or overnight at 4°C. Secondary antibodies were incubated on the slides for 1 h at RT. The following primary antibodies were used: anti-Oct3/4 (sc-5279, Santa Cruz Biotechnology, Heidelberg, Germany) and anti-Brachyury (AF2085, R&D Systems, Minneapolis, MN, USA). Secondary antibodies were obtained from Dianova (Hamburg, Germany). Finally, the slides were mounted with immunoselect antifading mounting medium containing DAPI (Dianova) to counterstain the nuclei. The stained cells were examined using an Olympus IX81 inverted microscope (Olympus, Hamburg, Germany).

GSK3 = details: cell-free system; cited from earlier work
[3] = ES-D3, 5 μM, three day treatment

| Compound | viability reduced by (ES-D3 cells; ES-D3, 1 μM) [%] | IC50 (ES-D3 cells) [µM] | toxicity (in words) (ES-CCE cells) | viability reduced by (ES-D3 cells; ES-D3, 2.5 μM) [%] | viability reduced by (ES-D3 cells; ES-D3, 5 μM) [%] | viability reduced by (ES-D3 cells; ES-D3, 7.5 μM) [%] | viability reduced by (ES-D3 cells; ES-D3, 10 μM) [%] | IC50 (ES-D3 cells; Mus musculus, 72 h) [µM] | activation of the Wnt/beta-catenin pathway (luminescence signal) (Wnt/beta-catenin pathway [1]; ES-D3, 5 μM) | activation of the Wnt/beta-catenin pathway (luminescence signal) (Wnt/beta-catenin pathway [2]; 5 μM) | T gene expression induction (T gene; ES-D3, 5 μM) | saturation of the concentration-response curve, Brachyury-positive cells (Brachyury; ES-D3, three day treatment) [%] | also measured |
| --- | --- | --- | --- | --- | --- | --- | --- | --- | --- | --- | --- | --- | --- |
| O=C1Nc2cc(Br)ccc2/C1=C1/Nc2ccccc2/C1=N\O [BIO] | 83.5 | 0.48 | strongly cytotoxic |  |  |  |  |  |  |  |  |  | viability reduced by (ES-D3 cells; ES-D3, 0.25 μM): 25.7%; viability reduced by (ES-D3 cells; ES-D3, 0.5 μM): 58.7%; viability reduced by (ES-D3 cells; ES-D3, 0.75 μM): 68.7%; activation of the Wnt/beta-catenin pathway (luminescence signal) (Wnt/beta-catenin pathway [1]; ES-D3, 0.5 μM): did not result in a robust activation of the Wnt/beta-catenin pathway above controls; activation of the Wnt/beta-catenin pathway (luminescence signal) (Wnt/beta-catenin pathway [2]; 0.5 μM): comparable to that of negative or positive controls; T gene expression induction (T gene; ES-D3, 0.5 μM): up to 300 fold; Brachyury-positive cells (Brachyury; ES-D3, 0.5 μM, three day treatment): almost no Brachyury-positive cells; cells positive for Oct3/4 (Oct3/4; ES-D3, 0.5 μM): almost all cells were positive for Oct3/4 |
| Cc1c[nH]c(-c2cnc(NCCNc3ccc(C#N)cn3)nc2-c2ccc(Cl)cc2Cl)n1 [CHIR-99021] |  |  | smallest reduction of the viability | 24.7 | 56.3 | 61.9 | 69.2 | 4.9 | significant activation of the Wnt/beta-catenin pathway | only a significant increase at 72 h | up to 2,500 fold | 60 | Brachyury-positive cells (Brachyury; [3]): around 43%; EC50 (Brachyury; Mus musculus, 72 h): 3.19 µM; selectivity as GSK3 inhibitor (GSK3): most selective GSK3 inhibitor |
| Cn1cc(C2=C(c3ccc(Cl)cc3Cl)C(=O)NC2=O)c2ccccc21 [SB-216763] | 1.7 |  | smallest reduction of the viability | 29.8 | 55.6 | 56.1 | 57.2 | 5.7 | significantly increased compared to control cells but not to Wnt3a-incubated cells | comparable to that of negative or positive controls | up to 300 fold |  | cells double-positive for Brachyury and Oct3/4 (Brachyury; [3]): ~ 3%; cells positive for Oct3/4 (Oct3/4; ES-D3, 5 μM): all cells were positive for Oct3/4 |
| CHIR-98014 | 52 | 1.1 |  |  |  |  |  |  |  |  |  | 50 | activation of the Wnt/beta-catenin pathway (luminescence signal) (Wnt/beta-catenin pathway [1]; ES-D3, 1 μM): significant activation of the Wnt/beta-catenin pathway; activation of the Wnt/beta-catenin pathway (luminescence signal) (Wnt/beta-catenin pathway [2]; 1 μM): significant increase of Wnt-signaling after 48 and 72 h; T gene expression induction (T gene; ES-D3, 1 μM): up to 2,500 fold; Brachyury-positive cells (Brachyury; ES-D3, 1 μM, three day treatment): ~50%; EC50 (Brachyury; ES-D3, three day treatment, counting of stained cells): 0.32 µM |
